Assay results from publication PMC12406196, “Anticoronavirus Activity of Uridine Glycoconjugates Containing a 1,2,3-Triazole Moiety” (Journal of Medicinal Chemistry, 2025).
pIC50: −log10 of the molar value. “Also recorded” adds a separate entry of the source. Like-named read-outs stand apart in the source and are kept apart here.

Key:
[1] = tested on: SC-VLP entry into HEK-hACE2 cells; assay: SARS-CoV-2 VLP (SC-VLP) internalization assay in HEK-hACE2 cells, luciferase; assay type: cell-based; conditions: 12.5 μM during SC-VLP production
[2] = MTS-based cell viability assay in Vero cells; conditions: African green monkey, 96 h per table footnote, read-out: CC50 (SARS-CoV-2 block)
Description: (§1) LR7, LLC-Mk2 or Vero cells were seeded in 96-well plates and cultured overnight. Next, the medium was changed to a new one supplemented with different concentrations (in triplicate) of analyzed compounds. Following the 2 days (LR7 and Vero) or 4 days (LLC-Mk-2) of incubation, CellTiter 96 AQueous nonradioactive cell proliferation assay (Promega) was performed according to the manufacturer’s instruction. The half-maximal cytotoxic concentration (CC50) was calculated as the concentration of a compound needed to reduce cell viability by 50% using GraphPad Prism software (version 5.01, GraphPad Software, San Diego, CA).

HCoV-NL63 RNA synthesis = assay: HCoV-NL63 RNA level in infected LLC-Mk2 cells, RT-PCR; assay type: cell-based, human coronavirus NL63; conditions: MOI 0.01, 96 h p.i.
Description: LR7 or LLC-Mk2 were cultured in 12-well plate overnight. Next, LR7 cells were infected with MHV at an MOI value of 1 for 1 h or LLC-Mk2 cells were infected with HCoV-NL63 at an MOI value of 0.01 for 2 h. Following removal of unbound virus, cells were cultured with medium supplemented with different concentrations of selected compounds. 8 h p.i. (MHV) or 96 h p.i. (HCoV-NL63) cells were collected and total RNA was isolated by CoV RNA kit (A&A Biotechnology, Poland) according to the manufacturer’s instruction. To evaluate levels of viral RNA in infected cells Qiagen One-Step RT-PCR reaction was performed. Following reverse transcription, the PCR reaction was carried out using primers: F: […], R: […] for amplification of a fragment of HCoV-NL63 genome (position: 26418–26960 bp NC_005831.2) and F: […] and R: […] for amplification of a fragment of MHV genome (position: 30341–30902 bp FJ647225.1). For internal control fragment of β-actin mRNA was reverse transcribed and amplified using primers For: […] and Rev: […].

[3] = MTS-based cell viability assay in LLC-Mk2 cells; conditions: Macaca mulatta, read-out: CC50 (HCoV-NL63 block)
Description: as §1

[4] = tested on: murine hepatitis virus strain A59 (MHV); assay: MHV titer in medium of infected LR7 cells, plaque assay; assay type: cell-based; conditions: for pIC50: Murine coronavirus, read-out: IC50 (MHV)
Description: LR7 or LLC-Mk2 cells were infected at a MOI of 0.01 with MHV and HCoV-NL63, respectively, and treated with selected compounds at a concentration ranging from 0 to 50 μM. Culture supernatants were collected 1 day (MHV) or 4 days (HCoV-NL63) after infection. Virus titer was determined by plaque assay.
(§2) The half-maximum inhibitory concentration value (IC50) indicating the concentration of compound needed to reduce virus titer by 50% in comparison to the control, was evaluated by GraphPad software (version 5.01, GraphPad Software, San Diego, CA).

LR7 cells = assay: MTS-based cell viability assay in LR7 cells; set-up: species or system mouse; conditions: 50 μM, uninfected LR7 cells
Description: as §1

[5] = MTS-based cell viability assay in LR7 cells; set-up: species or system mouse; conditions: mouse, LR7 cells, 48 h, 0–100 μM, read-out: CC50 (MHV block)
Description: as §1

[6] = tested on: murine hepatitis virus strain A59 (MHV); assay: Reduction of MHV cytopathic effect (CPE) in LR7 cells, MTS/PMS readout; assay type: cell-based; conditions: for protection against MHV-induced CPE: 50 μM, MOI 0.01, 24 h; for concentration above which MHV-induced CPE was significantly reduced: MOI 0.01, 24 h p.i.
Description: LR7 cells were seeded in a 96-well plate and cultured overnight. Next, the cells were infected with MHV at an MOI value of 0.01 in medium without FBS. Following 1 h of incubation, the medium containing the virus was collected and cells were covered with a medium supplemented with different concentrations (in triplicate) of the analyzed compounds or DMSO. 24 h p.i. cells viability was evaluated by CellTiter 96 AQueous nonradioactive cell proliferation assay (Promega) according to the manufacturer’s instruction.

SARS-CoV-2 = SARS-CoV-2 infectivity in supernatants of infected Vero cells, plaque assay; assay type: cell-based; conditions: for pIC50: read-out: IC50 (SARS-CoV-2)
Description: Vero cells were seeded in appropriate plates and allowed to reach an approximately 90% confluence. For infection, 200 μL of viral suspension containing 10^5 pfu (SARS-CoV-2 strain SARS-CoV-2/human/Czech Republic/951/2020) was added to each well and incubated for 2 h at 37 °C to allow virus adsorption. After the incubation, the viral medium was removed, and the wells were washed gently with phosphate-buffered saline (PBS). Test compounds were prepared in serial dilutions to final concentrations of 50, 25, 12.5, 6.25, 3.125, and 0 μM in the medium (DMEM containing 2% FBS). The compounds were added in quadruplicate to the infected cells. The plates were then incubated for 48 h at 37 °C. Following the 48 h treatment period, the supernatants were removed, and plaque assays in Vero E6 cells were performed to assess viral titers. Cells were fixed and stained 4 days after infection to visualize plaques, as described previously.
as §2

[7] = tested on: human coronavirus strain NL63 (HCoV-NL63); assay: HCoV-NL63 titer in medium of infected LLC-Mk2 cells, foci-forming assay; assay type: cell-based; conditions: for pIC50: read-out: IC50 (HCoV-NL63); for antiviral efficacy against HCoV-NL63 compared with compound 24: dose-response 0–25 μM
Description: LR7 or LLC-Mk2 cells were infected at a MOI of 0.01 with MHV and HCoV-NL63, respectively, and treated with selected compounds at a concentration ranging from 0 to 50 μM. Culture supernatants were collected 1 day (MHV) or 4 days (HCoV-NL63) after infection. […]
as §2

[8] = tested on: human coronavirus strain NL63 (HCoV-NL63); assay: HCoV-NL63 N protein expression in LLC-Mk2 cells, Western blot and densitometry; assay type: cell-based; conditions: for HCoV-NL63 N protein level: 50 μM, MOI 0.01, 4 days p.i., Western blot/densitometry
Description: LLC-Mk2 monolayers grown in 24-well plates were infected with HCoV-NL63 at an MOI value of 0.01 for 2 h. Unbound virus was removed, and cells were cultured in medium supplemented with different concentrations of compounds. Four days postinfection, cells were collected and lysed in CellLyticM Cell Lysis Reagent (Sigma). Following the protein separation by SDS-PAGE and transfer to PVDF membranes, proteins were immunoblotted using specific mouse anti-N NL63 Abs (Eurofins, Spain) or rabbit anti-β-catenin Abs (Santa Cruz), followed by antimouse or antirabbit secondary antibodies conjugated with HRP. Proteins were visualized and analyzed by chemiluminescence using the UVITEC Cambridge Alliance MINI HD detection system. The densitometric analysis of cells treated with 50 μM dose of a panel of glycoconjugates was performed based on three biological replicates of N and β-catenin immunoblots. The N protein levels were expressed as a percentage relative to DMSO-treated infected cells, while β-catenin levels were expressed as a percentage relative to noninfected control cells. The data were presented as the ratio of N/β-catenin for each sample, normalized accordingly.

SARS-CoV-2 replicon = assay type: cell-based
[9] = LR7, supplementary CSV, decimal comma
[10] = Severe acute respiratory syndrome coronavirus 2, Vero, supplementary CSV, decimal comma
[11] = virus titer released from LR7 cells, MOI 0.01, 24 h p.i., plaque assay
[12] = Severe acute respiratory syndrome coronavirus 2, Vero cells, supernatant 48 h after infection, plaque assay
[13] = 96 h, virus titer released from LLC-Mk2 cells, MOI 0.01, 4 days p.i.

| Compound | CC50 at 96 h [2] [µM] | concentration that effectively suppressed HCoV-NL63 RNA synthesis (HCoV-NL63 RNA synthesis) [µM] | CC50 at 96 h [3] [µM] | pIC50 [4, 9] | reduction of cell viability (cytotoxicity in uninfected cells) (LR7 cells) | CC50 at 48 h [5] [µM] | protection against MHV-induced CPE [6] | concentration above which MHV-induced CPE was significantly reduced [6] | pIC50 (SARS-CoV-2; [10]) | antiviral efficacy against HCoV-NL63 compared with compound 24 ([7]; LLC-Mk2 cells) | HCoV-NL63 N protein level [8] | pIC50 [4, 11] | pIC50 (SARS-CoV-2; [12]) | pIC50 [7, 13] | inhibition of SARS-CoV-2 replication (replicon) (SARS-CoV-2 replicon) | also measured |
| --- | --- | --- | --- | --- | --- | --- | --- | --- | --- | --- | --- | --- | --- | --- | --- | --- |
| CC(=O)OC[C@H]1O[C@@H](OCc2cn(C[C@H]3O[C@@H](n4ccc(=O)[nH]c4=O)[C@H](O[Si](C)(C)C(C)(C)C)[C@@H]3O[Si](C)(C)C(C)(C)C)nn2)[C@H](OC(C)=O)[C@@H](OC(C)=O)[C@H]1OC(C)=O [Compound 15, 2′,3′-di-O-tert-Butyldimethylsilyl-5′-deoxy-5′-[4-(2″,3″,4″,6″-tetra-O-acetyl-β-D-galactopyranosyloxymethyl)-1,2-3-triazol-1-yl]-uridine] | > 100 | 12.5 | 49.8 | 5.12 | 10–30% | 134 | significantly reduced cell death | above 12.5 μM | 4.56 | slightly lower activity | significantly reduced; also recorded: No N protein was detected | – | – | – | – | reduction of SC-VLP entry compared with the control [1]: 80%; pIC50 ([4]; LR7, 24 h): 5.12; pIC50 (SARS-CoV-2; Severe acute respiratory syndrome coronavirus 2, Vero, 48 h): ~4.56; pIC50 ([7]; LLC-MK2, 96 h): 5.17; pIC50 ([7]; LLC-MK2, supplementary CSV, decimal comma): 5.17 |
| CC(=O)OC[C@H]1O[C@@H](SCn2cc(COC[C@H]3O[C@@H](n4ccc(=O)[nH]c4=O)[C@H](O[Si](C)(C)C(C)(C)C)[C@@H]3O[Si](C)(C)C(C)(C)C)nn2)[C@H](OC(C)=O)[C@@H](OC(C)=O)[C@@H]1OC(C)=O [Compound 24, 2′,3′-di-O-tert-Butyldimethylsilyl-5′-O-[(1-(2″,3″,4″,6″-tetra-O-acetyl-β-D-glucopyranosylthiomethyl)-1,2-3-triazol-4-yl)-methyl]-uridine] | > 100 | 6.25 | 59.1 | – | 10–30% | > 100 | significantly reduced cell death | above 12.5 μM | 4.73 | – | significantly reduced; also recorded: No N protein was detected | 5.43 | ~4.73 | 5.51 | inhibited SARS-CoV-2 replication; also recorded: effectively suppressed SARS-CoV-2 replication; also recorded: partial | dose above which no virus was detectable (MHV titer) ([4]; LR7 cells, 24 h p.i., plaque assay): above 6.25 μM; dose above which HCoV-NL63 viral release was completely inhibited ([7]; LLC-Mk2 cells, 4 days p.i., foci-forming assay): above 6.25 μM; dose above which HCoV-NL63 viral protein expression was completely inhibited ([8]; 4 days p.i., immunoblot): above 6.25 μM |
| CC(=O)OC[C@H]1O[C@@H](SCc2cn(C[C@H]3O[C@@H](n4ccc(=O)[nH]c4=O)[C@H](O[Si](C)(C)C(C)(C)C)[C@@H]3O[Si](C)(C)C(C)(C)C)nn2)[C@H](OC(C)=O)[C@@H](OC(C)=O)[C@@H]1OC(C)=O [Compound 20, 2′,3′-di-O-tert-Butyldimethylsilyl-5′-deoxy-5′-[4-(2″,3″,4″,6″-tetra-O-acetyl-β-D-glucopyranosylthiomethyl)-1,2-3-triazol-1-yl]-uridine] | > 100 | 6.25 | > 100 | 4.95 | no detectable toxicity | > 100 | significantly reduced cell death; also recorded: nearly eliminating CPE | above 6.25 μM | 4.79 | slightly lower activity | significantly reduced; also recorded: reduction of N, as well as β-catenin levels | 4.95 | ~4.79 | 5.26 | inhibited SARS-CoV-2 replication; also recorded: effectively suppressed SARS-CoV-2 replication; also recorded: partial | reduction in SARS-CoV-2 viral titers (SARS-CoV-2; 25 μM, Vero cells): highest level of activity |
